# System: ob/ob mouse
# Test: Leptin administration for four weeks in ob/ob mouse, bone measured by peripheral quantitative computerized tomography
# Format: in vivo
# Description: Administration of leptin for four weeks increased femur length by 6% and increased cortical bone volumetric content by 18%, as determined by peripheral quantitative computerized tomography.
# [1] = peripheral quantitative computerized tomography
substance,measurement,setting,value
"leptin: a product of the obese gene, a 16 kDa protein produced by mature adipocytes and secreted in plasma",increase in femur length,,6%
same,bone volumetric density,[1],unchanged
same,increase in cortical bone volumetric content,[1],18%

# Reference: patent US6352970B1, “Treatment of skeletal disorders” (Pfizer Inc., priority 1998, dated 2002)
